Results on four molecules are retold here after EP0051301A1, “1-Carboxy-azaalkyl-indolin-2-carboxylic acids, process for preparing them, pharmaceutical compositions containing them and their therapeutical use” (CIBA-GEIGY AG, priority 1980, dated 1982).

Assay [1] deals with T1, angiotensin converting enzyme = ACE (Oryctolagus cuniculus, UniProt P12822).
T1 construct: Dieses Enzym wird aus Lungen von erwachsenen männlichen Kaninchen in Tris-Puffer; from tissue; host or cells: lung of adult male rabbits
T1 sequence (P12822 34-1310): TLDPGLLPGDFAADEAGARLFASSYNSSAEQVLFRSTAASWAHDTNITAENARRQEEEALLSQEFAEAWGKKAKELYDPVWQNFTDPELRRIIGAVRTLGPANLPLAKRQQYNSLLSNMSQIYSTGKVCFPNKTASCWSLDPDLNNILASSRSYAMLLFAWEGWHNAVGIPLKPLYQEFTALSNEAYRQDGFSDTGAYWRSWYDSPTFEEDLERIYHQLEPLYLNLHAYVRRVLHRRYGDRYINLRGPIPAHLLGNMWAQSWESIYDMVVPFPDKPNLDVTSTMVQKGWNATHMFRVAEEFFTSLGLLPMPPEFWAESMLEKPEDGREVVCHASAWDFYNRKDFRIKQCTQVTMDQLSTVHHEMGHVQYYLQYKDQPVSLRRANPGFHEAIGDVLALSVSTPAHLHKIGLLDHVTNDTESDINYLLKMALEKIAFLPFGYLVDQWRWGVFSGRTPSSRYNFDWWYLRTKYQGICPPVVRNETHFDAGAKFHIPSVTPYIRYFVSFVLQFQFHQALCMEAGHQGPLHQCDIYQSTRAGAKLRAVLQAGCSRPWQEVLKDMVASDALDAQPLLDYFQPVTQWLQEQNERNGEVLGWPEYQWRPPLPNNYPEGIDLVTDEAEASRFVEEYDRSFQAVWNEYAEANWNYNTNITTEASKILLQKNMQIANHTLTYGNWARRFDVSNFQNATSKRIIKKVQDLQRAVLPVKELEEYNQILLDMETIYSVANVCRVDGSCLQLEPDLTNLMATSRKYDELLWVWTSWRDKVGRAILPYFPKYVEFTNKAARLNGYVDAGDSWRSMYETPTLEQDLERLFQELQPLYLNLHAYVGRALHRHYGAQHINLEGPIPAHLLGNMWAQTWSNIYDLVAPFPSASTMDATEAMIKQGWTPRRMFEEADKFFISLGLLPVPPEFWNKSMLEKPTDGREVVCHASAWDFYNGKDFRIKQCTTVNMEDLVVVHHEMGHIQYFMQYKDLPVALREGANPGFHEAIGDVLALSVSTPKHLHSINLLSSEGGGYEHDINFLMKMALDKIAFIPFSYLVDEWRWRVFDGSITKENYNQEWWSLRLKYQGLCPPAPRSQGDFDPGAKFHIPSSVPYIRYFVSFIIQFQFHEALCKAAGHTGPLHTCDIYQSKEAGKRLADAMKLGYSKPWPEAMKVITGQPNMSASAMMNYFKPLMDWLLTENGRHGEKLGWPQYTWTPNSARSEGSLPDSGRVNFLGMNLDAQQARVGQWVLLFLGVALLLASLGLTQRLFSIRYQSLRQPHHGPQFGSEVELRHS
Kind of assay: In vitro ACE inhibition (ACEI), release of histidyl-leucine from hippuryl-histidyl-leucine, rabbit lung tissue preparation. The note with it: incubation 30 min at 37°. The class given is biochemical, Kaninchen. From the text:
Die in vitro Hemmung des Enzyms, welches das Angiotensin umwandelt, kann bei den Verbindungen dieser Erfindung analog zu Biochim. Biophys. Acta 293, 451 (1973) nachgewiesen werden. Gemäss dieser Methode werden die genannten Verbindungen in ungefähr 1 mMol Konzentrationen in Phosphatpuffer, welcher von aussen mit Eis gekühlt wird, aufgelöst. Zu diesen Lösungen gibt man zuerst verschiedene µl-Mengen von 1 mMolarem Histidyl-leucin in Phosphatpuffer und dann 100 pl von 5mMolarem Hippuryl-histidyl-leucin in Phosphatpuffer und 50 pl des Angiotensin-umwandelnden Enzyms. Dieses Enzym wird aus Lungen von erwachsenen männlichen Kaninchen in Tris-Puffer, der Kalium-und Magnesiumchlorid und auch Rohrzucker enthält, frisch hergestellt. Die genannten Lösungen werden 30 Minuten bei 37° inkubiert und die weitere Reaktion wird durch Hinzufügen von 0,75 ml einer 0,6-normalen wässerigen Natriumhydroxidlösung gestoppt. Dann gibt man bei Zimmertemperatur 100 µl o-Phthalaldehyd und nach 10 Minuten 100 µl 6-normaler Chlorwasserstoffsäure dazu. Die Proben werden in einem Spektroghotometer bei 360 nm mit Wasser verglichen und ihre optische Dichte wird bestimmt. Diese Werte werden durch einen Konversionsfaktor einer Standard-Kurve angepasst, wobei man die während der genannten Inkubation von 30 Minuten gebildete Histidyl-leucin-Menge in Nanomolen erhält. Die Ergebnisse werden, um den IC50-Wert zu bestimmen, gegenüber den Wirkstoff-Konzentrationen graphisch als Kurve dargestellt. Dieser Wert bedeutet diejenige Wirkstoff-Konzentration, welche die Hälfte der Aktivität einer Kontrollprobe, die keinen Wirkstoff enthält, ergibt. Die genannten repräsentativen Verbindungen der vorliegenden Erfindung sind auch in diesem in vitro Testsystem, bis zu dem IC50-Wert von 39 nM und darunter, sehr wirksam.
Die Prüfung der Wirkung von Verbindungen ist gemäss den Methoden für die Auswertung der Hemmung des Enzyms, welches das Angiotensin umwandelt [angiotensin converting enzyme = ACE] durchgeführt worden. […]

The subject of assay [2] is durch Angiotensin I (AI) hervorgerufenen Blutdrucksteigerung. In words: Inhibition of the blood pressure rise caused by angiotensin I in anaesthetised normotensive rats. In kind it is in vivo, Ratte. Conditions: rat, mean value 30 min after administration. From the text: Die neuen Verbindungen zeigen auch eine Hemmwirkung auf das Ansprechen des Blutdrucks von normotensiven Ratten auf Angiotensin I. Das Enzym Renin verursacht unter normalen Verhältnissen eine spezifische Hydrolyse des zirkulierenden Renin-Substrat-Proteins. Diese Hydrolyse ergibt das Angiotensin I, welches durch die Einwirkung des genannten Enzyms, welches das Angiotensin umwandelt, in das stark gefässverengernde Angiotensin II weiter hydrolysiert wird. Durch Hemmung des genannten Enzyms wird die Entstehung des Angiotensins II aus I verhindert. Diese Hemmung dämpft daher jedes Ansprechen des Blutdrucks nach einer Angiotenin-I-Attacke.
Der entsprechende in vivo Test wird mit männlichen, normotensiven Ratten, welche mit 100-120 mg/kg intraperitoneal verabreichtem Natriumsalz des Aethyl-(l-methylpropyl)-malonylthioharnstoffs narkotisiert sind, vorgenommen. Eine femurale Arterie und eine Wadenvene werden mit je einer Hohlnadel für die direkte Messung des Blutdrucks und für die intravenöse Verabreichung des Angiotensins I und der erfindungsgemässen Verbindungen, versehen. Nach der Stabilisierung des basalen Blutdrucks, wird die Druckänderung nach drei, in 5-minutigen Intervallen durchgeführten, Reizungen mit 0,33 µg/kg Angiotensin I i.v., bestimmt. Druckänderungen werden auch 5, 10, 15, 30 und 60 Minuten nach entweder intravenöser oder peroraler Verabreichung (mit Magensonde) der zu prüfenden Verbindungen bestimmt. Die letztgenannten Druckänderungen werden mit den Anfangswerten verglichen. Jede festgestellte Abnahme vom Ansprechen des Blutdrucks ist ein Hinweis auf die Hemmung des Enzyms, welches das Angiotensin umwandelt. Diese Abnahme kann bis zu 80%, nach Dosen von 10 mg/kg i.v. oder 50 mg/kg p.o., betragen und bis 60 Minuten lang andauern.
In der in vivo Prüfungsmethode wird zuerst durch Verabreichung des Angiotensins 1 (AI) an das Versuchstier eine Blutdrucksteigerung hervorgerufen. Es wird dann die Hemmung der einzelnen Verbindungen auf diese Blutdrucksteigerung gemessen.
II. Methode der Hemmung der durch Angiotensin I (AI) hervorgerufenen Blutdrucksteigerung, durch intravenöse Verabreichung der Testverbindung (Z AI-Hemmung) In diesen Untersuchungen wird wie oben beschrieben, je ein Katheter in eine femurale Arterie und in eine Wadenvene der Ratte eingeführt.
Der arterielle Druck wurde von dem Arterienkatheter aus registriert, während man Angiotensin I (AI) und die einzelnen Testverbindungen durch den Venenkatheter injiziert hatte. Die Hemmung der durch Angiotensin I verursachten Blutdrucksteigerung ist in der Tabelle als Durchschnittswert 30 Minuten nach der Verabreichung von ausgewählten Dosen der jeweiligen Verbindung wiedergegeben. Dabei werden solche Dosierungen ausgewählt, so dass u.a. der ID50 (i.v.)-Wert ermittelt werden kann.

Structures can show the parent of a compound that is named as a salt.

In assay [1], `C[C@H](NC(CCc1ccccc1)C(=O)O)C(=O)N1c2ccccc2C[C@H]1C(=O)O` (stereo partly drawn) [Beispiel 1, 1-[N-(1-Carboxy-3-phenylpropyl)-S-alanyl]-indolin-2S-carbonsäure] came in with an IC50 of 6 nM. For the same molecule, the “% AI Hemmungen” value in assay [2] (i.v. Dosis 0.1 mg/kg) is reported as 80%.
Regarding `CCOC(=O)[C@H](CCc1ccccc1)N[C@@H](C)C(=O)N1c2ccccc2C[C@H]1C(=O)O` [Beispiel 4, 1-[N-(lS-Carboäthoxy-3-phenyl-propyl)-S-alanyl]-indolin-2S-carbonsäurehydrochlorid], the “% AI Hemmungen” value in assay [2] (i.v. Dosis 0.03 mg/kg) was 33%; in assay [2] (i.v. Dosis 0.06 mg/kg) it was 80%; in assay [2] (i.v. Dosis 0.1 mg/kg), 95%.
`CCOC(=O)[C@@H](CCc1ccccc1)N[C@@H](C)C(=O)N1c2ccccc2C[C@H]1C(=O)O` [Beispiel 6, 1-[N-(lR-Carboäthoxy-3-phenyl-propyl)-S-alanyl]-indolin-2S-carbonsäure-hydrochlorid] came in with an IC50 in assay [1] of 8000 nM. Besides, the “% AI Hemmungen” value in assay [2] (i.v. Dosis 0.1 mg/kg) is 35%.
For `C[C@H](NC(Cc1ccccc1)C(=O)O)C(=O)N1c2ccccc2C[C@H]1C(=O)O` (stereo partly drawn) [Beispiel 7, 1-[N-(1-Carboxy-2-phenyl-äthyl)-S-alanyl]-indolin-2S-carbonsäure], the IC50 in assay [1] turned out to be 30 nM. The “% AI Hemmungen” value in assay [2] (i.v. Dosis 1.0 mg/kg) turned out to be 80%.

As usually defined, the IC50 is the point on the concentration scale where inhibition reaches its midpoint. The low end stands for inhibition by little substance, the high end for a need for much substance.
